Data published in BindingDB's records for PubMed 39167893 (University of Petroleum and Energy Studies).

Molecular target: KRas/Son of Sevenless Homolog 1 (Homo sapiens, UniProt P01116+Q07889)
Assay: Inhibition of KRAS G12D mutant/SOS1 (unknown origin) interaction by TR-FRET assay

KRas/Son of Sevenless Homolog 1, sequence (P01116 whole entry G12D): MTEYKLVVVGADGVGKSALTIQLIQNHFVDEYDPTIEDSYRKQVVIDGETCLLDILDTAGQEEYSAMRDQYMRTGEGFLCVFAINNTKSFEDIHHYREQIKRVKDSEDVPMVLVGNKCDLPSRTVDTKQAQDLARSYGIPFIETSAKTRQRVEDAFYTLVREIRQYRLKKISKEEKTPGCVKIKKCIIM
KRas/Son of Sevenless Homolog 1, sequence (Q07889 whole entry): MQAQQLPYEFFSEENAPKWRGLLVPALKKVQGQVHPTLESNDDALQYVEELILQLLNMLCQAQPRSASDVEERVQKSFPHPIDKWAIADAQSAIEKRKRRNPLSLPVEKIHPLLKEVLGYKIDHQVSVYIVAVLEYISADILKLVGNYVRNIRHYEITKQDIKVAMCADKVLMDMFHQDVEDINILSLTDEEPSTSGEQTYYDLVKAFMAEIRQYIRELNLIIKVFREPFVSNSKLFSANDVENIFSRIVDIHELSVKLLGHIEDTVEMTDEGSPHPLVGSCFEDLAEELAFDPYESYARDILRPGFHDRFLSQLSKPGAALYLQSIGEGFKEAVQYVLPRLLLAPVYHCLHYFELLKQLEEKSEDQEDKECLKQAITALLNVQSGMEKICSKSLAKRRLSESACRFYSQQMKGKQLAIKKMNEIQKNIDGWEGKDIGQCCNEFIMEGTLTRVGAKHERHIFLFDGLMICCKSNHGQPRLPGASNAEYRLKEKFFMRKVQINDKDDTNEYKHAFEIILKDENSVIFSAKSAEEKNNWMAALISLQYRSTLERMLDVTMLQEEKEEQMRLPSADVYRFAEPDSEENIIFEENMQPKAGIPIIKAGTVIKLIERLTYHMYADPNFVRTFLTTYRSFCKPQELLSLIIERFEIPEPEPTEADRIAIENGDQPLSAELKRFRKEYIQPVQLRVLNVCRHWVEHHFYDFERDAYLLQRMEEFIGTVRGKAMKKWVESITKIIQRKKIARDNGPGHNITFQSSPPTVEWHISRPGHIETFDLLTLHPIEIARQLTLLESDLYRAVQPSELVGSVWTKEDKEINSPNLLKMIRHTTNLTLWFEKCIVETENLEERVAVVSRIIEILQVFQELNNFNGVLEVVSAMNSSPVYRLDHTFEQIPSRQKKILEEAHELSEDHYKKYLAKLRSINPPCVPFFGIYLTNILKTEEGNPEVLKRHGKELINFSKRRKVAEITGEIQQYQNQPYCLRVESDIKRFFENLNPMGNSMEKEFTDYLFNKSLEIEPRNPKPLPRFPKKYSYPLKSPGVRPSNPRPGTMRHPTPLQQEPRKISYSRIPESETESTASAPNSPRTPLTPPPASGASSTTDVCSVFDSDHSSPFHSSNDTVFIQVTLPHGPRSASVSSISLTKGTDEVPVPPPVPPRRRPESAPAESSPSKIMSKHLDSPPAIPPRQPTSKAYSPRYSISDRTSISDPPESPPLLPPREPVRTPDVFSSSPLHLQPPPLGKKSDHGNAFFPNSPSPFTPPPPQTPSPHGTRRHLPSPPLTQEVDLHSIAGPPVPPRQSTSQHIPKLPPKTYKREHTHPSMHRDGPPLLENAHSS

IC50: 450 nM
Structure (SMILES): Cn1cnc(Cn2ccc3ccc(CNCc4[nH]c5ccccc5c4[C@H]4NC(=O)c5ccc(O)cc54)cc32)c1
